In ChEMBL document CHEMBL1139415, “Highly functionalized 7-azaindoles as selective PPAR gamma modulators” (Bioorg Med Chem Lett, 2008):
Activity calls are given as the source filed them. The calls are words filed in the database; no cut-off is given here.

How the values were obtained:
[1] = system: Mus musculus; test: Antiglycemic activity in db/db mouse assessed as glucose correction at 10 mg/kg, po administered daily for 11 days; assay type: functional
[2] = biological target: T1, Peroxisome proliferator-activated receptor gamma (Homo sapiens, UniProt P37231); test: Displacement of [3H]2AD-5075 from GST-tagged human PPARgamma receptor expressed in Escherichia coli BL21
T1 sequence (P37231 whole entry): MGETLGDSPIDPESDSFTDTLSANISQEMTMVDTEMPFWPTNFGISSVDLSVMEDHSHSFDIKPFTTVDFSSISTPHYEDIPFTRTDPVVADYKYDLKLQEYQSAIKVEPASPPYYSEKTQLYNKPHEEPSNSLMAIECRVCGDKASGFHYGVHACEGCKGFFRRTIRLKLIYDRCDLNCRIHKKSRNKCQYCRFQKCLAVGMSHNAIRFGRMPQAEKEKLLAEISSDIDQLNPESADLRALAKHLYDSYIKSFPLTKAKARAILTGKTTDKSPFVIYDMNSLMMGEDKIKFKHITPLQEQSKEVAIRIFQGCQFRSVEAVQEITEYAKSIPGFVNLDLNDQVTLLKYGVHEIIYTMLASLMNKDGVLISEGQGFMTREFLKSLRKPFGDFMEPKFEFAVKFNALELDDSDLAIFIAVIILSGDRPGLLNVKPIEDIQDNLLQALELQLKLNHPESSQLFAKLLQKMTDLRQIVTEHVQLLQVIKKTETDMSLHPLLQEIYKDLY

[3] = biological target: T1, Peroxisome proliferator-activated receptor gamma; test: Agonist activity at human PPARgamma receptor expressed in african green monkey COS cells after 48 hrs by GAL4 transactivation assay; assay type: functional, cell-based
[4] = Clearance in Sprague-Dawley rat at 0.5 mg, iv and 2.0 mg, po; assay type: ADME, organism-based; settings: in vivo
[5] = Half life in Sprague-Dawley rat at 0.5 mg, iv and 2.0 mg, po; assay type: ADME, organism-based; settings: in vivo
[6] = Bioavailability in Sprague-Dawley rat at 0.5 mg, iv and 2.0 mg, po; assay type: ADME, organism-based; settings: in vivo
[7] = biological target: T2, Peroxisome proliferator-activated receptor alpha (Homo sapiens, UniProt Q07869); test: (§1) Binding affinity to human PPARalpha
T2 sequence (Q07869 whole entry): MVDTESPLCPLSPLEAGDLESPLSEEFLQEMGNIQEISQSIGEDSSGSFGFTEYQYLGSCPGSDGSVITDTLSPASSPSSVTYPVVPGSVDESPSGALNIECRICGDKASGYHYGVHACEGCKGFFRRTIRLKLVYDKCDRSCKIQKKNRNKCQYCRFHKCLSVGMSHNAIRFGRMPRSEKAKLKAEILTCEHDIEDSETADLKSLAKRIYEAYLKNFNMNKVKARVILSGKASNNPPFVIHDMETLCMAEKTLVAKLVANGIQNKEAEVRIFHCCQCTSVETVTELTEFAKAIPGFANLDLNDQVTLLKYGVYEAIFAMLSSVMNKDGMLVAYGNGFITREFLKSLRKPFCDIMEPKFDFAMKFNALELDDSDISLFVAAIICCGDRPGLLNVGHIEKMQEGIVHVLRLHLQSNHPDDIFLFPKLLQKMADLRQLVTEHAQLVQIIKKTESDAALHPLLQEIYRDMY

[8] = biological target: T3, Peroxisome proliferator-activated receptor delta (Homo sapiens, UniProt Q03181); test: Binding affinity to PPARdelta
T3 sequence (Q03181 whole entry): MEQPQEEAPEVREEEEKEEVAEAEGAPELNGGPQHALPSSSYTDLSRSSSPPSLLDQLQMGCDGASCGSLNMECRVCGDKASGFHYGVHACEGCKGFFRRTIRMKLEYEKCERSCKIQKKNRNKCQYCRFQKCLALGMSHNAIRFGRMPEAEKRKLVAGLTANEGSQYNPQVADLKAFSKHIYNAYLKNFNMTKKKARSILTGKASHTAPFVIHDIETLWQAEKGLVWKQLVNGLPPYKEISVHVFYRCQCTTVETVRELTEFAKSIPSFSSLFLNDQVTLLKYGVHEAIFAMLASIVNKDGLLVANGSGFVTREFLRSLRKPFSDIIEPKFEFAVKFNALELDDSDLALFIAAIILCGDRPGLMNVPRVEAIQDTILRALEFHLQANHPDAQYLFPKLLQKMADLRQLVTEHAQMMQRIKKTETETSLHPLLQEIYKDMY

[9] = biological target: T4, Peroxisome proliferator-activated receptor alpha (Mus musculus) (UniProt P23204); test: Binding affinity to mouse PPARalpha
T4 sequence (whole entry): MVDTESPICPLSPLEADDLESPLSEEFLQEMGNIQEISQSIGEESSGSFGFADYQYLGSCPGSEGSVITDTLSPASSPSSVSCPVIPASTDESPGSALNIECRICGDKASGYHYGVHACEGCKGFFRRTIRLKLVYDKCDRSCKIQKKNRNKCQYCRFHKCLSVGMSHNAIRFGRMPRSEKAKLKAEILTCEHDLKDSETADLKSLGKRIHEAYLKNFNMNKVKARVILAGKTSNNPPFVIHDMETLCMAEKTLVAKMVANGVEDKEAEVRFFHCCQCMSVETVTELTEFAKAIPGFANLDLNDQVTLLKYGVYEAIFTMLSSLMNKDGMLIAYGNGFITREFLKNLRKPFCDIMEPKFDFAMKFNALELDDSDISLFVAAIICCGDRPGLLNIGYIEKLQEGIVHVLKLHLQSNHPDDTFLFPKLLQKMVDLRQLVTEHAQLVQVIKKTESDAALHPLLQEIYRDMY

[10] = system: Mus musculus; test: Antiglycemic activity in db/db mouse assessed as glucose correction at 30 mg/kg, po administered daily for 11 days; assay type: functional
[11] = biological target: Peroxisome proliferator-activated receptor alpha (Homo sapiens) (UniProt Q07869); test: as §1
[12] = system: Mus musculus; test: Antiglycemic activity in db/db mouse assessed as glucose correction at 50 mg/kg, po administered daily for 11 days; assay type: functional

| Structure (SMILES) | Activity [1] [%] | IC50 [2] [nM] | EC50 [3] [nM] | clearance [4] [mL/min/kg] | half-life [5] [h] | bioavailability [6] [%] | IC50 [7] [nM] | IC50 [8] [nM] | %max [9] [%] | Activity [9] | Activity [10] [%] | Activity [11] | Activity [12] [%] |
| --- | --- | --- | --- | --- | --- | --- | --- | --- | --- | --- | --- | --- | --- |
| CN(CCOc1ccc(CC2SC(=O)NC2=O)cc1)c1ccccn1 (stereo not drawn) [ROSIGLITAZONE] | 90 | – | – | – | – | – | – | – | – | – | – | – | – |
| COc1ccc(C(=O)c2c(C)n(Cc3cccc(O[C@@H](C)C(=O)O)c3)c3nc(C)ccc23)cc1 | 42 | 16 | 9 | 28 | 2.4 | 80 | > 50000 | > 50000 | – | – | – | – | – |
| COc1ccc(C(=O)c2c(C)n(Cc3cc(O[C@@H](C)C(=O)O)ccc3F)c3nc(C)ccc23)cc1 | 63 | 4 | 2 | 32 | 1.9 | 105 | – | – | 28 | 500 nM | – | – | – |
| COc1ccc(C(=O)c2c(C)n(Cc3ccc(Cl)c(O[C@@H](C)C(=O)O)c3)c3nc(OC)ccc23)cc1 | – | < 1 | 1 | – | – | – | > 50000 | > 50000 | – | – | – | – | – |
| Cc1c(Oc2ccc(Cl)cc2)c2cccnc2n1Cc1cc(O[C@@H](C)C(=O)O)ccc1F | – | 54 | 156 | 22.1 | 1.6 | 77 | > 50000 | > 50000 | – | – | – | – | – |
| Cc1c(Oc2ccc(Cl)cc2)c2ccc(Cl)nc2n1Cc1ccc(Cl)c(O[C@@H](C)C(=O)O)c1 | 32 | 3 | 4 | 27 | 1.2 | 56 | > 50000 | > 50000 | – | – | 44 | – | – |
| COc1ccc(C(=O)c2c(C)n(Cc3ccc(F)c(O[C@@H](C)C(=O)O)c3)c3nc(OC)ccc23)cc1 | 23 | 1 | 1 | – | – | – | – | – | – | 222 nM | – | 489 nM | – |
| COc1ccc(C(=O)c2c(C)n(Cc3cc(O[C@@H](C)C(=O)O)ccc3F)c3nc(OC)ccc23)cc1 | 33 | 2 | 1 | 7.4 | 1.4 | 37 | > 50000 | > 50000 | – | – | 35 | – | 34 |
| Cc1c(Oc2ccc(Cl)cc2)c2ccc(F)nc2n1Cc1ccc(Cl)c(O[C@@H](C)C(=O)O)c1 | – | 3 | 4 | 23 | 0.8 | 47 | > 50000 | > 50000 | – | – | 30 | – | – |
| COc1ccc(C(=O)c2c(C)n(Cc3cccc(O[C@H](C)C(=O)O)c3)c3ncccc23)cc1 | – | 726 | 2930 | – | – | – | – | > 50000 | – | Active | – | Active | – |
| Cc1c(Oc2ccc(Cl)cc2)c2cccnc2n1Cc1cc(O[C@@H](C)C(=O)O)ccc1Cl | – | 25 | 36 | 21.8 | 1.2 | 61 | > 50000 | > 50000 | – | – | – | – | – |
| Cc1c(Oc2ccc(Cl)cc2)c2cccnc2n1Cc1ccc(F)c(O[C@@H](C)C(=O)O)c1 | – | 106 | 140 | – | – | – | > 50000 | > 50000 | – | – | – | – | – |
| COc1ccc(C(=O)c2c(C)n(Cc3cc(O[C@@H](C)C(=O)O)ccc3Cl)c3nc(OC)ccc23)cc1 | – | 2 | 2 | – | – | – | > 50000 | > 50000 | – | – | 32 | – | – |
| Cc1c(Oc2ccc(Cl)cc2)c2ccc(F)nc2n1Cc1cc(O[C@@H](C)C(=O)O)ccc1Cl | – | 15 | 4 | – | – | – | > 50000 | > 50000 | – | – | – | – | – |
| Cc1c(Oc2ccc(Cl)cc2)c2ccc(F)nc2n1Cc1ccc(F)c(O[C@@H](C)C(=O)O)c1 | – | 23 | 94 | – | – | – | > 50000 | > 50000 | – | – | – | – | – |
| COc1ccc(C(=O)c2c(C)n(Cc3ccc(F)c(O[C@@H](C)C(=O)O)c3)c3ncccc23)cc1 | – | 10 | 3 | – | – | – | > 50000 | > 50000 | – | – | – | – | – |
